Measured values: US10287301B2 (Achillion Pharmaceuticals, Inc., priority 2015, dated 2019)

Molecular target: Human Factor D (Homo sapiens (Human), UniProt P00746)
Assay: Human Factor D Assay
Assay type: biochemical
Settings: Human Factor D, Table 3; read-out: IC50
How it was run: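 Thioester cleavage assay: human Factor D (serum-derived, 80 nM final), substrate Z-L-Lys-SBzl with DTNB, both 100 μM final, after 5 min compound preincubation at room temperature.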

Human Factor D, sequence (P00746 26-253): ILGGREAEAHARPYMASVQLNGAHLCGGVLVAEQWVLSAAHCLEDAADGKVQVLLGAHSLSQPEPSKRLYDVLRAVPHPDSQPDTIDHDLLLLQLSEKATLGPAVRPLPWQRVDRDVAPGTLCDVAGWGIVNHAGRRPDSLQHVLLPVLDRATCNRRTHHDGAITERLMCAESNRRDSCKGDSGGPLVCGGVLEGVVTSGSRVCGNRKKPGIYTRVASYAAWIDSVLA

Structure (SMILES)	IC50
CC(=O)c1nn(CC(=O)N2C[C@H](F)C[C@H]2C(=O)Nc2cncc(Br)n2)c2ccc(-c3ccc4nc(C)cn4c3)cc12 [Compound 654, (2S,4R)-1-(2-(3-Acetyl-5-(2-methylimidazo[1,2-a]pyridin-6-yl)-1H-indazol-1-yl)acetyl)-N-(6-bromopyrazin-2-yl)-4-fluoropyrrolidine-2-carboxamide]	< 1 µM
CC(=O)c1nn(CC(=O)N2C[C@H](F)C[C@H]2C(=O)Nc2cncc(Br)n2)c2ccc(-c3cnc4cc(C5CC5)nn4c3)cc12 [Compound 655, (2S,4R)-1-(2-(3-Acetyl-5-(2-cyclopropylpyrazolo[1,5-a]pyrimidin-6-yl)-1H-indazol-1-yl)acetyl)-N-(6-bromopyrazin-2-yl)-4-fluoropyrrolidine-2-carboxamide]	< 1 µM
CC(=O)c1cn(CC(=O)N2C[C@H](F)C[C@H]2C(=O)Nc2cccc(OC(F)(F)F)n2)c2ccc(-c3cnc4cc(C)nn4c3)cc12 [Compound 656, (2S,4R)-1-(2-(3-Acetyl-5-(2-methylpyrazolo[1,5-a]pyrimidin-6-yl)-1H-indol-1-yl)acetyl)-4-fluoro-N-(6-(trifluoromethoxy)pyridin-2-yl)pyrrolidine-2-carboxamide]	< 1 µM
CC(=O)c1cn(CC(=O)N2C[C@H](F)C[C@H]2C(=O)Nc2cc(C)cc(Br)n2)c2ccc(-c3cnc4cc(C)nn4c3)cc12 [Compound 657, (2S,4R)-1-(2-(3-Acetyl-5-(2-methylpyrazolo[1,5-a]pyrimidin-6-yl)-1H-indol-1-yl)acetyl)-N-(6-bromo-4-methylpyridin-2-yl)-4-fluoropyrrolidine-2-carboxamide]	< 1 µM
CC(=O)c1nn(CC(=O)N2C[C@H](F)C[C@H]2C(=O)Nc2cccc(OC(F)F)n2)c2ccc(-c3cnc4cc(C)nn4c3)cc12 [Compound 658, (2S,4R)-1-(2-(3-Acetyl-5-(2-methylpyrazolo[1,5-a]pyrimidin-6-yl)-1H-indazol-1-yl)acetyl)-N-(6-(difluoromethoxy)pyridin-2-yl)-4-fluoropyrrolidine-2-carboxamide]	< 1 µM
CC(=O)c1nn(CC(=O)N2[C@@H]3C[C@@H]3C[C@H]2C(=O)Nc2cncc(Br)n2)c2ccc(-c3ccc4nc(C)nn4c3)cc12 [Compound 659, (1R,3S,5R)-2-(2-(3-Acetyl-5-(2-methyl-[1,2,4]triazolo[1,5-a]pyridin-6-yl)-1H-indazol-1-yl)acetyl)-N-(6-bromopyrazin-2-yl)-2-azabicyclo[3.1.0]hexane-3-carboxamide]	< 1 µM
CC(=O)c1nn(CC(=O)N2[C@@H]3C[C@@H]3C[C@H]2C(=O)Nc2cccc(Br)n2)c2ccc(-c3ccc4nc(C)nn4c3)cc12 [Compound 660, (1R,3S,5R)-2-(2-(3-Acetyl-5-(2-methyl-[1,2,4]triazolo[1,5-a]pyridin-6-yl)-1H-indazol-1-yl)acetyl)-N-(6-bromopyridin-2-yl)-2-azabicyclo[3.1.0]hexane-3-carboxamide]	< 1 µM
CC(=O)c1nn(CC(=O)N2C[C@H](F)C[C@H]2C(=O)Nc2cnc(C)c(Br)n2)c2ccc(-c3cnc4cc(C)nn4c3)cc12 [Compound 662, (2S,4R)-1-(2-(3-Acetyl-5-(2-methylpyrazolo[1,5-a]pyrimidin-6-yl)-1H-indazol-1-yl)acetyl)-N-(6-bromo-5-methylpyrazin-2-yl)-4-fluoropyrrolidine-2-carboxamide]	< 1 µM
CC(=O)c1nn(CC(=O)N2C[C@H](F)C[C@H]2C(=O)Nc2cnc(C)c(Br)n2)c2ccc(-c3ccc4nc(C)nn4c3)cc12 [Compound 663, (2S,4R)-1-(2-(3-Acetyl-5-(2-methyl-[1,2,4]triazolo[1,5-a]pyridin-6-yl)-1H-indazol-1-yl)acetyl)-N-(6-bromo-5-methylpyrazin-2-yl)-4-fluoropyrrolidine-2-carboxamide]	< 1 µM
CC(=O)c1nn(CC(=O)N2[C@@H]3C[C@@H]3C[C@H]2C(=O)Nc2cncc(Br)n2)c2ccc(-c3cnc4ccnn4c3)cc12 [Compound 664, (1R,3S,5R)-2-(2-(3-Acetyl-5-(pyrazolo[1,5-a]pyrimidin-6-yl)-1H-indazol-1-yl)acetyl)-N-(6-bromopyrazin-2-yl)-2-azabicyclo[3.1.0]hexane-3-carboxamide]	< 1 µM
CC(=O)c1nn(CC(=O)N2C[C@H](F)C[C@H]2C(=O)Nc2cnc(C)c(Br)n2)c2ccc(-c3cnc4ccnn4c3)cc12 [Compound 665, (2S,4R)-1-(2-(3-Acetyl-5-(pyrazolo[1,5-a]pyrimidin-6-yl)-1H-indazol-1-yl)acetyl)-N-(6-bromo-5-methylpyrazin-2-yl)-4-fluoropyrrolidine-2-carboxamide]	< 1 µM
CC(=O)c1nn(CC(=O)N2[C@@H]3C[C@@H]3C[C@H]2C(=O)Nc2cnc(C)c(Br)n2)c2ccc(-c3cnc4cc(C)nn4c3)cc12 [Compound 666, (1R,3S,5R)-2-(2-(3-Acetyl-5-(2-methylpyrazolo[1,5-a]pyrimidin-6-yl)-1H-indazol-1-yl)acetyl)-N-(6-bromo-5-methylpyrazin-2-yl)-2-azabicyclo[3.1.0]hexane-3-carboxamide]	< 1 µM
CC(=O)c1nn(CC(=O)N2[C@@H]3C[C@@H]3C[C@H]2C(=O)Nc2cnc(C)c(Br)n2)c2ccc(-c3cnc4ccnn4c3)cc12 [Compound 667, (1R,3S,5R)-2-(2-(3-Acetyl-5-(pyrazolo[1,5-a]pyrimidin-6-yl)-1H-indazol-1-yl)acetyl)-N-(6-bromo-5-methylpyrazin-2-yl)-2-azabicyclo[3.1.0]hexane-3-carboxamide]	< 1 µM
CC(=O)c1nn(CC(=O)N2C[C@H](F)C[C@H]2C(=O)Nc2cccc(OC(F)(F)F)n2)c2ccc(-c3cnc4ccnn4c3)cc12 [Compound 668, (2S,4R)-1-(2-(3-Acetyl-5-(pyrazolo[1,5-a]pyrimidin-6-yl)-1H-indazol-1-yl)acetyl)-4-fluoro-N-(6-(trifluoromethoxy)pyridin-2-yl)pyrrolidine-2-carboxamide]	< 1 µM
CC(=O)c1nn(CC(=O)N2[C@@H]3C[C@@H]3C[C@H]2C(=O)Nc2cncc(Br)n2)c2ccc(-c3cnc4cc(C5CC5)nn4c3)cc12 [Compound 669, (1R,3S,5R)-2-(2-(3-Acetyl-5-(2-cyclopropylpyrazolo[1,5-a]pyrimidin-6-yl)-1H-indazol-1-yl)acetyl)-N-(6-bromopyrazin-2-yl)-2-azabicyclo[3.1.0]hexane-3-carboxamide]	< 1 µM
CC(=O)c1nn(CC(=O)N2[C@@H]3C[C@@H]3C[C@H]2C(=O)Nc2cccc(OC(F)(F)F)n2)c2ccc(-c3cnc4cc(C)nn4c3)cc12 [Compound 670, (1R,3S,5R)-2-(2-(3-Acetyl-5-(2-methylpyrazolo[1,5-a]pyrimidin-6-yl)-1H-indazol-1-yl)acetyl)-N-(6-(trifluoromethoxy)pyridin-2-yl)-2-azabicyclo[3.1.0]hexane-3-carboxamide]	< 1 µM
CC(=O)c1nn(CC(=O)N2[C@@H]3C[C@@H]3C[C@H]2C(=O)Nc2cccc(OC(F)(F)F)n2)c2ccc(-c3cnc4ccnn4c3)cc12 [Compound 671, (1R,3S,5R)-2-(2-(3-Acetyl-5-(pyrazolo[1,5-a]pyrimidin-6-yl)-1H-indazol-1-yl)acetyl)-N-(6-(trifluoromethoxy)pyridin-2-yl)-2-azabicyclo[3.1.0]hexane-3-carboxamide]	< 1 µM
CC(=O)c1nn(CC(=O)N2C[C@H](F)C[C@H]2C(=O)Nc2cccc(OC(F)(F)F)n2)c2ccc(-c3cnc4cc(C5CC5)nn4c3)cc12 [Compound 672, (2S,4R)-1-(2-(3-Acetyl-5-(2-cyclopropylpyrazolo[1,5-a]pyrimidin-6-yl)-1H-indazol-1-yl)acetyl)-4-fluoro-N-(6-(trifluoromethoxy)pyridin-2-yl)pyrrolidine-2-carboxamide]	< 1 µM
CC(=O)c1nn(CC(=O)N2[C@@H]3C[C@@H]3C[C@H]2C(=O)Nc2cccc(Br)n2)c2ccc(-c3cnc4cc(C5CC5)nn4c3)cc12 [Compound 673, (1R,3S,5R)-2-(2-(3-Acetyl-5-(2-cyclopropylpyrazolo[1,5-a]pyrimidin-6-yl)-1H-indazol-1-yl)acetyl)-N-(6-bromopyridin-2-yl)-2-azabicyclo[3.1.0]hexane-3-carboxamide]	< 1 µM
CC(=O)c1nn(CC(=O)N2C[C@H](F)C[C@H]2C(=O)Nc2cccc(Br)n2)c2ccc(-c3cnc4cc(C5CC5)nn4c3)cc12 [Compound 674, (2S,4R)-1-(2-(3-Acetyl-5-(2-cyclopropylpyrazolo[1,5-a]pyrimidin-6-yl)-1H-indazol-1-yl)acetyl)-N-(6-bromopyridin-2-yl)-4-fluoropyrrolidine-2-carboxamide]	< 1 µM
CC(=O)c1nn(CC(=O)N2C[C@H](F)C[C@H]2C(=O)Nc2cnc(C)c(Br)n2)c2ccc(-c3cnc4cc(C5CC5)nn4c3)cc12 [Compound 675, (2S,4R)-1-(2-(3-Acetyl-5-(2-cyclopropylpyrazolo[1,5-a]pyrimidin-6-yl)-1H-indazol-1-yl)acetyl)-N-(6-bromo-5-methylpyrazin-2-yl)-4-fluoropyrrolidine-2-carboxamide]	< 1 µM
CC(=O)c1nn(CC(=O)N2C[C@H](F)C[C@H]2C(=O)Nc2cc(Cl)cc(Br)n2)c2ccc(-c3cnc4cc(C)nn4c3)cc12 [Compound 676, (2S,4R)-1-(2-(3-acetyl-5-(2-methylpyrazolo[1,5-a]pyrimidin-6-yl)-1H-indazol-1-yl)acetyl)-N-(6-bromo-4-chloropyridin-2-yl)-4-fluoropyrrolidine-2-carboxamide]	< 1 µM
CC(=O)c1nn(CC(=O)N2C[C@H](F)C[C@H]2C(=O)Nc2ccn(CC(F)(F)F)n2)c2ccc(-c3cnc4cc(C)nn4c3)cc12 [Compound 678, (2S,4R)-1-(2-(3-acetyl-5-(2-methylpyrazolo[1,5-a]pyrimidin-6-yl)-1H-indazol-1-yl)acetyl)-4-fluoro-N-(1-(2,2,2-trifluoroethyl)-1H-pyrazol-3-yl)pyrrolidine-2-carboxamide]	< 1 µM
COC(=O)Cc1cccc(NC(=O)[C@@H]2C[C@@H](F)CN2C(=O)Cn2nc(C(C)=O)c3cc(-c4cnc5cc(C)nn5c4)ccc32)n1 [Compound 679, methyl 2-(6-((2S,4R)-1-(2-(3-acetyl-5-(2-methylpyrazolo[1,5-a]pyrimidin-6-yl)-1H-indazol-1-yl)acetyl)-4-fluoropyrrolidine-2-carboxamido)pyridin-2-yl)acetate]	< 1 µM
